Data from patent publication US3946000A, “7-[α-(2-Aminomethyl-1-cyclohexenyl)-acetamido]-3-heterocyclic thiomethyl-3-cephem-4-carboxylic acids” (Bristol-Myers Company, priority 1973, dated 1976).
Converted amounts (≈) assume the structure as drawn. “And” between values parts separate entries of the source, which are not always exact repeats. Identical values can stand only once. Like-named read-outs stand apart in the source and are kept apart here.

Experiments:
[1] = Solubility in 0.1 M pH 7.0 phosphate buffer (bioassay and UV-assay); assay type: physicochemical; conditions: for solubility at 4 h: 0.1 m phosphate buffer, pH 7, aqueous buffer
Experimental: *Stirred at 25° C. for 4 hours in 0.1 M pH 7.0 phosphate
buffer--filtered through Milipore filter (0.45 μ)--assayed
spectroscopically against its own standard.
The test solution and the standard solution are prepared as described below.
About 10 mg. (1) of a sample is placed in a vial and mixed with 1 ml. of 0.1 M phosphate buffer (pH 7.0). The vial is stoppered, sealed with a metal cap, placed on a rotary shaker and agitated at 160 rpm for 4 hr. at 25° C. The solution is filtered through a Millipore filter (HAWP 01300, mean pore size 0.45 μm). The filtrate is diluted to use for bioassay and UV assay as follows:
About 2 mg. of the same sample is weighed precisely and dissolved in 4 ml. of 1% K2 CO3 solution^(3) (usually within one minute). The solution is diluted exactly to 50 ml. in a flask with 0.1 M pH 7.0 phosphate buffer and used for the preparation of the standard solutions for bioassay and UV-assay as follows:
(1) A 20 mg. or more sample is used when the sample is expected to be more soluble.
(2) 0.1 M pH 7.0 phosphate buffer is used as a diluent in the present test and also as a reference solution in UV-assay.
(3) It was previously confirmed that almost the same result is obtained when the sample is solubilized in DMSO (dimethylsulfoxide) and then diluted similarily with the buffer.
(4) Volume of the solution is measured precisely with an appropriate pipette or flask.
BA: Bioassay, UV: UV-assay Results given for the same compound on different lines were obtained using samples from different lots.

S. aureus Russel = experiment: M.I.C. by Tube Dilution, S. aureus Russel; assay type: cell-based; conditions: Staphylococcus aureus, Nutrient Broth, overnight at 37° C.
E. coli ATCC 8739 = experiment: M.I.C. by Tube Dilution, E. coli ATCC 8739; assay type: cell-based; conditions: Escherichia coli, ATCC8739, overnight at 37° C.
E. coli NIHJ = experiment: M.I.C. by Tube Dilution, E. coli NIHJ; assay type: cell-based; conditions: Escherichia coli, overnight at 37° C.
S. aureus BX-1633 = experiment: Minimum curative dose in infected mice, S. aureus BX-1633; assay type: in vivo; conditions: Staphylococcus aureus, BX1633, sc; subcutaneous, mice infected with lethal dose of S. aureus BX-1633; read-out: CD50 (minimum curative dose for 50% of the mice)
S. aureus Smith A9537 = experiment: M.I.C. by Tube Dilution, S. aureus Smith A9537; assay type: cell-based; conditions: Staphylococcus aureus, 10^-4 dilution, overnight at 37° C.
E coli Juhl = experiment: Minimum curative dose in infected mice, E coli Juhl; assay type: in vivo; conditions: Mus musculus, sc; subcutaneous, mice infected with lethal dose of E coli Juhl; read-out: CD50 (minimum curative dose for 50% of the mice)
E. coli Juhl A15119 = experiment: M.I.C. by Tube Dilution, E. coli Juhl A15119; assay type: cell-based; conditions: Escherichia coli, JUHLA15119, 10^-4 dilution, overnight at 37° C.
Str. pyogenes A9604 = experiment: M.I.C. by Tube Dilution, Str. pyogenes A9604; assay type: cell-based; conditions: Streptococcus pyogenes; Str. pyogenes A9604 + 5% serum; 50% Nutrient Broth - 45% Antibiotic Assay Broth; overnight at 37° C.
Mycobacterium 607 = experiment: M.I.C. by Tube Dilution, Mycobacterium 607; assay type: cell-based; conditions: overnight at 37° C.
Pr. mirabilis A9900 = experiment: M.I.C. by Tube Dilution, Pr. mirabilis A9900; assay type: cell-based; conditions: Proteus mirabilis, 10^-4 dilution, overnight at 37° C.
Sal. enteritidis A9531 = experiment: M.I.C. by Tube Dilution, Sal. enteritidis A9531; assay type: cell-based; conditions: Salmonella enterica, 10^-4 dilution, overnight at 37° C.
K. pneumoniae A9977 = experiment: M.I.C. by Tube Dilution, K. pneumoniae A9977; assay type: cell-based; conditions: Klebsiella pneumoniae, 10^-4 dilution, overnight at 37° C.
S. aureus BX1633 A9606 = experiment: M.I.C. by Tube Dilution, S. aureus BX1633 A9606; assay type: cell-based; conditions: Staphylococcus aureus, BX1633A9606, S. aureus BX1633 A9606; Nutrient Broth, overnight at 37° C.
Ser. marcescens A20019 = experiment: M.I.C. by Tube Dilution, Ser. marcescens A20019; assay type: cell-based; conditions: Serratia marcescens, 10^-4 dilution, overnight at 37° C.
Ps. aeruginosa A9843 = experiment: M.I.C. by Tube Dilution, Ps. aeruginosa A9843; assay type: cell-based; conditions: Pseudomonas aeruginosa, 10^-4 dilution, overnight at 37° C.
Pr. morganii A15153 = experiment: M.I.C. by Tube Dilution, Pr. morganii A15153; assay type: cell-based; conditions: Morganella morganii, 10^-4 dilution, overnight at 37° C.
K. pneumoniae A15130 = experiment: M.I.C. by Tube Dilution, K. pneumoniae A15130; assay type: cell-based; conditions: Klebsiella pneumoniae, 10^-4 dilution, overnight at 37° C.
D. pneumoniae A9585 = experiment: M.I.C. by Tube Dilution, D. pneumoniae A9585; assay type: cell-based; conditions: Streptococcus pneumoniae, A9585, D. pneumoniae A9585 + 5% serum; 50% Nutrient Broth - 45% Antibiotic Assay Broth; overnight at 37° C.
[2] = 0.1 M phosphate buffer (pH 7.0), 4 hr. at 25° C., UV-assay, read-out: Solubility, UV (UV-assay)
[3] = 0.1 M phosphate buffer (pH 7.0), 4 hr. at 25° C., bioassay, read-out: Solubility, BA (bioassay)
[4] = stirred at 25° C. for 4 hours in 0.1 M pH 7.0 phosphate buffer, assayed spectroscopically against its own standard, read-out: Solubility
[5] = SMITHA9537, S. aureus Smith A9537 + 50% serum
[6] = SMITHA9537, S. aureus Smith A9537, Nutrient Broth

SMILES	solubility at 4 h [1, 2] [µg/mL]	solubility at 4 h [1, 3] [µg/mL]	solubility at 4 h [1, 4] [µg/mL]	MIC (S. aureus Russel) [µg/mL]	MIC (E. coli ATCC 8739) [µg/mL]	MIC (E. coli NIHJ) [µg/mL]	MIC (S. aureus Smith A9537; [5]) [µg/mL]	MIC (S. aureus Smith A9537; [6]) [µg/mL]	MIC (E. coli Juhl A15119) [µg/mL]	MIC (Mycobacterium 607) [µg/mL]	MIC (Pr. mirabilis A9900) [µg/mL]	MIC (Sal. enteritidis A9531) [µg/mL]	MIC (K. pneumoniae A9977) [µg/mL]	MIC (S. aureus BX1633 A9606) [µg/mL]	MIC (Ser. marcescens A20019) [µg/mL]	MIC (Ps. aeruginosa A9843) [µg/mL]	MIC (Pr. morganii A15153) [µg/mL]	MIC (K. pneumoniae A15130) [µg/mL]	MIC (D. pneumoniae A9585) [µg/mL]	also measured
NCC1=C(CC(=O)NC2C(=O)N3C(C(=O)O)=C(CSc4ccc5nnc(O)n5n4)CSC23)CCCC1 (stereo not drawn) [Example 5, 7-[α-(2-Aminomethyl-1-cyclohexenyl)acetamido]-3-(3-hydroxypyridazino-[3,2-c]-3-triazol-6-ylthiomethyl)-3-cephem-4-carboxylic acid]	8100 (≈ 15200 µM)	8000 (≈ 15000 µM)	8000 (≈ 15000 µM)	–	–	–	–	–	–	–	–	–	–	–	–	–	–	–	–	–
Cn1nnnc1SCC1=C(C(=O)O)N2C(=O)C(NC(=O)CC3=C(CN)CCCC3)[C@H]2SC1 (stereo partly shown) [Example 3, 7-[(2-aminomethyl-1-cyclohexen-1-yl)acetamido]-3-(1-methyltetrazol-5-ylthiomethyl)-3-cephem-4-carboxylic acid]	24600 (≈ 51300 µM)	25600 (≈ 53400 µM)	23000 to 26000 (≈ 48000 to 54200 µM)	0.4 to 0.8 (≈ 0.834 to 1.67 µM)	3.1 to 6.3 (≈ 6.46 to 13.1 µM)	1.6 to 3.1 (≈ 3.34 to 6.46 µM)	0.8 to 1.6	0.2 to 0.4 (≈ 0.417 to 0.834 µM)	3.1 to 6.3 (≈ 6.46 to 13.1 µM)	> 100	100 (≈ 209 µM)	1.6 to 3.1 (≈ 3.34 to 6.46 µM)	0.8 to 3.1 (≈ 1.67 to 6.46 µM)	1.6 (≈ 3.34 µM)	> 100	> 100	> 100	3.1 to 6.3 (≈ 6.46 to 13.1 µM)	0.04 to 0.08	ED50 (S. aureus BX-1633): 2.4 mg/kg; ED50 (E coli Juhl): 5.4 mg/kg; MIC (Str. pyogenes A9604): 0.04 to 0.08 µg/mL; Solubility, UV (UV-assay) ([1]; 0.1 M phosphate buffer (pH 7.0), 4 hr. at 25° C., UV-assay, listed as BB-S336, 240 min): 26000 µg/mL (≈ 54200 µM); Solubility, BA (bioassay) ([1]; 0.1 M phosphate buffer (pH 7.0), 4 hr. at 25° C., bioassay, listed as BB-S336, 240 min): 23000 µg/mL (≈ 48000 µM)
CC(=O)OCC1=C(C(=O)O)N2C(=O)C(NC(=O)CC3=C(CN)CCCC3)C2SC1 (stereo not drawn) [Example 16, 7-[α-(2-Aminomethy-1-cyclohexenyl)acetamido]cephalosporanic acid]	–	–	–	0.8 to 1.6 (≈ 1.89 to 3.78 µM)	25 (≈ 59 µM)	25 to 50 (≈ 59 to 118 µM)	3.1	0.8 (≈ 1.89 µM)	25 (≈ 59 µM)	> 100	50 (≈ 118 µM)	12.5 (≈ 29.5 µM)	12.5 to 25 (≈ 29.5 to 59 µM)	3.1 (≈ 7.32 µM)	> 100	> 100	> 100	12.5 to 50 (≈ 29.5 to 118 µM)	0.16 to 0.31	solubility at 4 h ([1]; UV-assay, read-out: Solubility (UV)): 5300 µg/mL (≈ 12500 µM); solubility at 4 h ([1]; bioassay, read-out: Solubility (BA)): 5400 µg/mL (≈ 12800 µM)

The next lines start with results.

solubility at 4 h [1, 2] [µg/mL]	solubility at 4 h [1, 3] [µg/mL]	solubility at 4 h [1, 4] [µg/mL]	SMILES	MIC (S. aureus Russel) [µg/mL]	MIC (E. coli ATCC 8739) [µg/mL]	MIC (E. coli NIHJ) [µg/mL]	MIC (S. aureus Smith A9537; [5]) [µg/mL]	MIC (S. aureus Smith A9537; [6]) [µg/mL]	MIC (E. coli Juhl A15119) [µg/mL]	MIC (Mycobacterium 607) [µg/mL]	MIC (Pr. mirabilis A9900) [µg/mL]	MIC (Sal. enteritidis A9531) [µg/mL]	MIC (K. pneumoniae A9977) [µg/mL]	MIC (S. aureus BX1633 A9606) [µg/mL]	MIC (Ser. marcescens A20019) [µg/mL]	MIC (Ps. aeruginosa A9843) [µg/mL]	MIC (Pr. morganii A15153) [µg/mL]	MIC (K. pneumoniae A15130) [µg/mL]	MIC (D. pneumoniae A9585) [µg/mL]	also measured
2500 (≈ 4880 µM)	3800 (≈ 7410 µM)	3500 (≈ 6830 µM)	NCc1ccccc1CC(=O)NC1C(=O)N2C(C(=O)O)=C(CSc3ccc4nnnn4n3)CSC12 (stereo not shown) [BB-S226, reference compound]	–	–	–	–	–	–	–	–	–	–	–	–	–	–	–	–	Solubility, UV (UV-assay) ([1]; 0.1 M phosphate buffer (pH 7.0), 4 hr. at 25° C., UV-assay, 240 min): 2100 µg/mL and 3500 µg/mL and 2200 µg/mL
3000 (≈ 5810 µM)	3000 (≈ 5810 µM)	3000 (≈ 5810 µM)	NCC1=C(CC(=O)NC2C(=O)N3C(C(=O)O)=C(CSc4ccc5nnnn5n4)CSC23)CCCC1 (stereo not drawn) [Example 2, 7-[α-(2-aminomethyl-1-cyclohexenyl)acetamido]-3-(pyradazino[2,3-d]tetrazol-6-ylthiomethyl)-3-cephem-4-carboxylic acid]	–	–	–	–	–	–	–	–	–	–	–	–	–	–	–	–	–
900 (≈ 1830 µM)	1200 (≈ 2440 µM)	900 (≈ 1830 µM)	Cc1nnc(SCC2=C(C(=O)O)N3C(=O)C(NC(=O)Cc4ccccc4CN)C3SC2)s1 (stereo not shown) [MR-S96, reference compound]	–	–	–	–	–	–	–	–	–	–	–	–	–	–	–	–	–
